# Source: patent publication EP0907658B1 (PRINCE OF WALES MEDICAL RESEARCH INSTITUTE LIMITED, priority 1996, dated 2004)
# Ends that are not written are not given here.
# Tests used:
# [1] = test system: neuropeptide Y Y1 receptor; details: studies in vivo; cited from earlier work
# [2] = test system: neuropeptide Y Y2 (prejunctional); details: studies in vivo; cited from earlier work
# Y2-like receptors = assay: Inhibition of the increase in pulse interval evoked by vagus nerve stimulation in anaesthetised rats (prejunctional activity); type: in vivo; details: for EC50 ΔP1%: change in pulse interval, anaesthetised rats, intravenous peptide; for in vivo activity at Y2 receptors (potency as inhibitor of the effect of vagal stimulation on heart rate): compared with Ac[L28,L31]NPY24-36
# Experimental: (§1) Experiments were carried out on adult rats (Wistar) of both sexes (250-350g), anaesthetised with sodium pentobarbitone (Nembutal, Boehringer-Ingleheim; 60 mg/kg, i.p.). The trachea was cannulated and the animal artificially ventilated. The femoral vein was cannulated for administration of peptides and further doses of anaesthetic. The left femoral artery was cannulated to record arterial pressure. Both vagus nerves were cut. […] The frequency was chosen to increase pulse interval by approximately 100 ms, a submaximal effect on this variable. The electrocardiogram was measured using needle electrodes and monitored on one channel of an osciloscope. Pulse interval (the period between successive beats of the heart) was recorded beat-by-beat by triggering from ECG. Pulse interval and arterial pressure were recorded on the pen recorder.
# Dose-response curves were constructed from group data for all rats. Because of the long time-course of action of the peptides tested, not all peptides were given to each rat. Usually however, each rat received neuropeptide Y and two other peptides.
# (§2) As an indication of prejunctional activity two parameters were measured; the maximum percent inhibition of the increase in pulse interval evoked by stimulation of the vagus nerve following injection of peptide and the time to half recovery of this effect (T50). For pressor action, an indicator of postjunctional activity, two parameters were also measured; the peak pressor response following injection of peptide and the duration of the increase in blood pressure. These indices give a reliable measure of the actions of a peptide at pre-and postjunctional sites, and have been used previously in this laboratory for this purpose; Potter et al., 1989; Potter et al., 1991). Results were analysed using a one-way ANOVA.
# Y1 receptors = assay: Pressor response (blood pressure increase) after peptide injection in anaesthetised rats (postjunctional activity); type: in vivo
# Experimental: as §1, with “The” for “The frequency was chosen to increase pulse interval by approximately 100 ms, a submaximal effect on this variable. The”
# Dose-response curves were constructed from group data for all rats. Because of the long time-course of action of the peptides tested, not all peptides were given to each rat.
# as §2, with “These indices give a reliable measure of the actions of a peptide at pre-and postjunctional sites, and have been used previously in this laboratory for this purpose; Potter et al., 1989; Potter et al., 1991).” left out
# human Y2 receptor = assay: [125I]NPY receptor binding assay on SMS-MSN cells; details: for IC50: SMS-MSN cells, 30 pM [125I]NPY
# Experimental: SK-N-MC cells expressing the human Y1 receptor and SMS-MSN cells expressing the human Y2 receptor were obtained from the ATCC. They were cultured in 1:1 DMEM:Ham's F12 medium (ICN) containing 10% fetal calf serum, 0.1% non-essential amino acids, 0.2 mM glutamine, and 0.056% sodium bicarbonate. Confluent cells were harvested in scraping and pellets were stored at -80°C. On the day of use cells were thawed, washed once in binding buffer salts, passed several times through a 22 ga. needle, and the protein content was assayed using bicinchoninic acid (BCA kit, Pierce).
# Just before use, plates were filtered and washed twice with 50 mM Tris-HCI pH 7.4 / 0.1% BSA. […] Binding was terminated by filtration. […] Specific binding was analysed by nonlinear regression using a single-site fitting function (Graphpad Prism). Nonspecific binding was defined by binding in the presence of 1 µM competitor.
# [3] = test system: transmitter release from renal nerves; assay: Kidney blood flow: increase of renal vascular resistance elicited by renal nerve stimulation; type: in vivo, dogs; details: 40 nmol dose; Figure 1
# Experimental: Experiments were carried out in six, adult, mongrel dogs of both sexes weighing between 18 and 26 kg. The dogs were anaesthetised with a bolus injection of sodium pentobarbitone (36 mg/kg intravenous; Nembutal, Boehringer Ingelheim) and then maintained on an infusion (2-3 mg/kg/hr). The animal was artificially ventilated, maintained at constant temperature and blood pressure and heart rate were monitored continuously.
# The left kidney was exposed retroperitoneally and renal arterial blood flow was monitored continuously (Pernow & Lundberg, 1989a), using a transonic flow probe (Transonic System Inc., N.Y.). Postganglionic nerves to the kidney were isolated, cut and placed over bipolar, platinum electrodes for stimulation (1-10 Hz, 5-10 V, 1-5 msec).
# The renal nerve was stimulated over a range of frequencies (1-10 Hz) for 30 secs and a frequency-response curve constructed. The responses were measured at the peak change in flow. […] Responses were reported as change in vascular resistance.
# [4] = test system: human neuropeptide Y Y1 receptor; details: Y1 receptor expressed in fibroblast cells; cited from earlier work
# [5] = test system: neuropeptide Y Y1 receptor type; details: SK-N-MC cells; cited from earlier work
# [6] = test system: neuropeptide Y Y2 receptor subtype; details: SMS-KAN cells; cited from earlier work
substance,measurement,setting,value
"(Leu^17, Glu^19, Ala^21, Ala^22, Glu^23, Leu^28, Leu^31) neuropeptide Y-(13-36) [ANA neuropeptide Y-(13-36)]",pressor activity,[1],retained significant pressor activity
same,prejunctional activity,[2],prejunctional activity equivalent to the whole neuropeptide Y molecule
"Ac-ARAALNAATRQRY-NH2 [Ac[A24,26,27,30,31,L28]NPY24-36]",EC50 ΔP1%,Y2-like receptors,0.56 nmol
same,in vivo activity at Y2 receptors (potency as inhibitor of the effect of vagal stimulation on heart rate),Y2-like receptors,enhanced in vivo activity at Y2 receptors
"Ac-ARHALNLLTRQRY-NH2 [Ac[A24,A27,L28,L31]NPY24-36, Ac[Ala24, Ala27, Leu28, Leu31]NPY(24-36)]",EC50 ΔP1%,Y2-like receptors,0.89 nmol
same,in vivo activity at Y2 receptors (potency as inhibitor of the effect of vagal stimulation on heart rate),Y2-like receptors,enhanced in vivo activity at Y2 receptors
same,direct effect on the circulation,"Y1 receptors; 40 nmol dose, Table 1",exerted no direct effect on the circulation
same,affinity for NPY Y2 receptors,human Y2 receptor; in words,high affinity for NPY Y2 receptors
same,inhibition of the increase of renal vascular resistance elicited by renal nerve stimulation,[3],almost completely inhibited the effect of nerve stimulation
"Ac-ARHYLNLLTRQRY-NH2 [Ac[A24,L28,L31]NPY24-36]",EC50 ΔP1%,Y2-like receptors,0.46 nmol
"Ac-LAHYLNLLTRQRY-NH2 [Ac[A25,L28,L31]NPY24-36]",EC50 ΔP1%,Y2-like receptors,1.58 nmol
same,IC50,human Y2 receptor,2 nM
"Ac-LAHYRNLLTRQRY-NH2 [Ac[A25,R28,L31]NPY24-36]",EC50 ΔP1%,Y2-like receptors,1.95 nmol
"Ac-LRAYLNLLTRQRY-NH2 [Ac[A26,L28,L31]NPY24-36]",EC50 ΔP1%,Y2-like receptors,1.26 nmol
"Ac-LRHALNLLTRQRY-NH2 [Ac[A27,L28,L31]NPY24-36]",EC50 ΔP1%,Y2-like receptors,0.52 nmol
"Ac-LRHYANLLTRQRY-NH2 [Ac[A28,L31]NPY24-36]",EC50 ΔP1%,Y2-like receptors,2.75 nmol
"Ac-LRHYLALLTRQRY-NH2 [Ac[L28,A29,L31]NPY24-36]",EC50 ΔP1%,Y2-like receptors,1.48 nmol
"Ac-LRHYLNALTRQRY-NH2 [Ac[L28,A30,L31]NPY24-36]",EC50 ΔP1%,Y2-like receptors,0.39 nmol
"Ac-LRHYLNLATRQRY-NH2 [Ac[L28,A31]NPY24-36]",EC50 ΔP1%,Y2-like receptors,0.78 nmol
"Ac-LRHYLNLLARQRY-NH2 [Ac[L28,L31,A32]NPY24-36]",EC50 ΔP1%,Y2-like receptors,6.46 nmol
"Ac-LRHYLNLLTRQRY-NH2 [Ac[L28,L31]NPY24-36]",EC50 ΔP1%,Y2-like receptors,3.16 nmol
same,increase in cytosolic calcium,[4],did hot stimulate
same,affinity for the neuropeptide Y Y1 receptor type,[5],no affinity
same,affinity for the neuropeptide Y Y2 receptor subtype,[6],significant affinity
same,IC50,human Y2 receptor,3.9 nM
AcNPY 24-36,Increase in BP (rel to NPY),"Y1 receptors; anaesthetised rats, †: No response to 10 nmole dose",Of
"Ac[A26,A27,L28,L31]NPY24-36 (Ac-LRAALNLLTRQRY; ends and bridges not checked; UniProt P01303 52-64, looked up, variant H26A Y27A I28L I31L) [Ac[A26,27,L28,31]NPY24-36]",in vivo activity at Y2 receptors (potency as inhibitor of the effect of vagal stimulation on heart rate),Y2-like receptors,enhanced in vivo activity at Y2 receptors
"Ac[L28,I30]NPY24-36 (Ac-LRHYLNIITRQRY; ends and bridges not checked; UniProt P01303 52-64, looked up, variant I28L L30I)",EC50 ΔP1%,Y2-like receptors,1.26 nmol
Neuropeptide Y [NPY],change of blood pressure,"Y1 receptors; in vivo in rats, at the doses tested",raised blood pressure significantly in a dose-dependent manner
